# Residues, ends and D or L forms follow the SMILES beside them. *: point of attachment. Cbz = O=C(OCc1ccccc1)*; CH2F = FC*
# Tests used:
# [1] = biological target: T1, Peregrin (Homo sapiens) (UniProt P55201); settings: Compound concentration 20.0 uM
# T1 sequence (whole entry): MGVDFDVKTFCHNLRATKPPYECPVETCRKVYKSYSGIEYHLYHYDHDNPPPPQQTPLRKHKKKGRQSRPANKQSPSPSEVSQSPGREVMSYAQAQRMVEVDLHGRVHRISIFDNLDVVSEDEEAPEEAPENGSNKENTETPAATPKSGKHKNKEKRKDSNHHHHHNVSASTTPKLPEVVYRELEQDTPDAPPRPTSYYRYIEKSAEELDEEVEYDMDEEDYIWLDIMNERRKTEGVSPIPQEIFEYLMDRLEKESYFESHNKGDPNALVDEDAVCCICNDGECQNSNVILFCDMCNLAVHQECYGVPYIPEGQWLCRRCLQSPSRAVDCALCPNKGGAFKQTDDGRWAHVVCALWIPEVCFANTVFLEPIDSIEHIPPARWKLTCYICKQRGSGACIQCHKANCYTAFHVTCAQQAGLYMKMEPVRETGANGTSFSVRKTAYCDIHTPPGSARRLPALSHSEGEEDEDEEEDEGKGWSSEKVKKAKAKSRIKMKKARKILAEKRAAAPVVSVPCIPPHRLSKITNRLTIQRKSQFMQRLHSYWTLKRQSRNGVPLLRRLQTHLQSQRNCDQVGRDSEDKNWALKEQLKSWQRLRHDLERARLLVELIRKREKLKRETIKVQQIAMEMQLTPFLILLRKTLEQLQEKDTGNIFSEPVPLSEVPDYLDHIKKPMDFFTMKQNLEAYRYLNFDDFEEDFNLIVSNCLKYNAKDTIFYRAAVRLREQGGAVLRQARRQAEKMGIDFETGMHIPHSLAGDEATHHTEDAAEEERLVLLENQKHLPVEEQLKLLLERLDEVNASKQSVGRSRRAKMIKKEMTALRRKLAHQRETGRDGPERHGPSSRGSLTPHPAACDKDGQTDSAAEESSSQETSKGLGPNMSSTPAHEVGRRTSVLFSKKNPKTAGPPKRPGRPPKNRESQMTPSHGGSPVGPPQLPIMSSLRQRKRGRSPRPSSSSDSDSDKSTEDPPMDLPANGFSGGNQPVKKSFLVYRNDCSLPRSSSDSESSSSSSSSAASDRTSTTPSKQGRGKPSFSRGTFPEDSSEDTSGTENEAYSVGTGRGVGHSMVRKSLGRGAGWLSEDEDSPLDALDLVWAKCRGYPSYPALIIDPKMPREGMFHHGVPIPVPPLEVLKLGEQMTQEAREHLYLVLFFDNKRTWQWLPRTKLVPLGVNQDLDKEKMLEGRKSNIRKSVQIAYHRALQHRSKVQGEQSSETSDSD
# [2] = biological target: Fibroblast growth factor receptor 2 (Homo sapiens) (UniProt P21802); settings: Compound concentration 20.0 uM
# Sequence of Fibroblast growth factor receptor 2 (Homo sapiens) (P21802 22-821 limits assumed): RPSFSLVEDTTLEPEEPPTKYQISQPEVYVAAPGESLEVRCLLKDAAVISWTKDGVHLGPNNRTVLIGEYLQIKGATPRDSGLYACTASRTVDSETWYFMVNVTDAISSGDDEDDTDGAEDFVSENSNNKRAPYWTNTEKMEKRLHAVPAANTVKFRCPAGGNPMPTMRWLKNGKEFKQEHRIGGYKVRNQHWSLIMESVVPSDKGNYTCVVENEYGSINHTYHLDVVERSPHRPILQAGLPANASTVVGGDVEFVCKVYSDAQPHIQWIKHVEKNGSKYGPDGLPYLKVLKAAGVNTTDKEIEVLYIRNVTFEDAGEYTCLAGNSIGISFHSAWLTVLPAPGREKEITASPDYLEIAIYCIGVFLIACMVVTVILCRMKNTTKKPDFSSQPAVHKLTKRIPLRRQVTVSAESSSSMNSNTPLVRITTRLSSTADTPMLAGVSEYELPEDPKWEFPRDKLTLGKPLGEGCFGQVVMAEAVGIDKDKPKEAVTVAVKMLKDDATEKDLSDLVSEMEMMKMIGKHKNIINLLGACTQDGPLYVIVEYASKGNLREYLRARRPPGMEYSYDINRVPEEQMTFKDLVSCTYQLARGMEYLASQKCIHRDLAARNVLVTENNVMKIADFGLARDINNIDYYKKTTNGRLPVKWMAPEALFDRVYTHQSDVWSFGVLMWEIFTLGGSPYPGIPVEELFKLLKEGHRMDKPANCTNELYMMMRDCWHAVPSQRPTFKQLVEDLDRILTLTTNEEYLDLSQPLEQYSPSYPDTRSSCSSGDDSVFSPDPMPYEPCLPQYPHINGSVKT
# Description: Thermal Shift Assay. Domain: start/stop: T457-E768
SMILES,ΔTm [1],ΔTm [2],ΔTm ([1]; tested as the 2H-labelled form),ΔTm ([2]; tested as the 2H-labelled form)
Cc1noc(C)c1-c1cc(Cl)c(Nc2ccccc2C(=O)O)c(Cl)c1,-0.15 °C,0.17 °C,–,–
CC(C)(C)NS(=O)(=O)c1cccc2c(NC(=O)[C@H](Cc3ccccc3)NC(=O)C3CCCCC3)cccc12,0.28 °C,0.01 °C,–,–
O=C(NCC1CCOCC1)c1n[nH]cc1NC(=O)c1c(F)cccc1F,-1.34 °C,0.69 °C,–,–
CCCOc1ccc(CCc2nc3cc(-c4c(C)noc4C)ccc3n2CCN2CCOCC2)cc1,-1.09 °C,-0.48 °C,–,–
CS(=O)(=O)c1ccc(-c2cnc(NCc3ccco3)n3cnnc23)cc1,-1.15 °C,0.54 °C,–,–
CC(=O)O[C@]1(C(C)=O)CC[C@H]2[C@@H]3C=C(Cl)C4=CC(=O)[C@@H]5C[C@@H]5[C@]4(C)[C@H]3CC[C@@]21C,-1.28 °C,0.57 °C,–,–
Cc1c(CN2CCC(Nc3ncnc4sc(CC(F)(F)F)cc34)CC2)ccc2c1cc(C#N)n2Cc1cn[nH]c1,2.02 °C,-1.27 °C,–,–
C[C@H](NC(=O)c1cn(C2(C#N)CC2)cn1)C(=O)Nc1nc(-c2cccc(-c3ccn(C)n3)c2)cs1,-0.85 °C,0.8 °C,–,–
CC(=O)N[C@@H](Cc1ccc(O)cc1)C(=O)N[C@H](C(=O)N[C@@H](C)C(=O)N[C@@H](CC(=O)O)C(=O)CCl)C(C)C,-1.75 °C,0.63 °C,–,–
CC1(C)Cn2nc(-c3ccc(F)cn3)c(-c3ccnc4[nH]ncc34)c2CO1,–,–,-1.29 °C,0.38 °C
CC(C)(F)C[C@H](N[C@@H](c1ccc(-c2ccc(S(C)(=O)=O)cc2)cc1)C(F)(F)F)C(=O)NC1(C#N)CC1,-1.04 °C,0.18 °C,–,–
Nc1cccc(Nc2ncc(-c3ccc(Cl)cc3)o2)c1,4.7 °C,2.1 °C,–,–
CC(C)=C[C@H]1C[C@H](C)[C@]2(CC[C@]3(C)C[C@H]4[C@H](C(=O)C[C@@]4(C)O)/C(C=O)=C\C[C@H]32)O1,-0.47 °C,0.16 °C,–,–
O=C(c1cc(Cc2n[nH]c(=O)c3ccccc23)ccc1F)N1CCn2nc(C(F)(F)F)nc2C1,0.87 °C,-0.57 °C,–,–
O=C(O)C1=CCCN(CCON=C(c2ccccc2)c2ccccc2)C1,0.57 °C,0.48 °C,–,–
Cc1nc(N)c2nnn(C[C@H]3CN(Cc4nccs4)CCO3)c2n1,0.82 °C,-0.39 °C,–,–
CS(=O)(=O)N1CCN(C(=O)c2cnc3ccc(Cl)cc3c2-c2ccc(C3(C#N)CC3)cc2)CC1,1.84 °C,0.34 °C,–,–
COc1ccccc1S(=O)(=O)Nc1ccc2c(c1)CN(C)C(=O)N2,1.9 °C,-0.59 °C,–,–
O=C(NCc1ncccc1F)c1coc(CCNCCc2nc3ccccc3[nH]2)n1,-1.77 °C,-0.6 °C,–,–
Cc1cc(C(=O)N2CCN(C3CN(C(=O)c4ccc(-c5ccccc5)cc4)C3)CC2)no1,-1.49 °C,1.38 °C,–,–
CC(=O)N[C@@H](CC(C)C)C(=O)N[C@@H](CCC(=O)O)C(=O)N[C@@H](Cc1cnc[nH]1)C(=O)N[C@H](C=O)CC(=O)O (Ac-LEHD-aldehyde),-1.22 °C,0.53 °C,–,–
O=C(CCCCCCC(=O)Nc1ccc([C@H]2O[C@@H](CSc3nc(-c4ccccc4)c(-c4ccccc4)o3)C[C@@H](c3ccc(CO)cc3)O2)cc1)NO,0 °C,-10.7 °C,–,–
O=C(NC1CCC1)c1ccc2nc(-c3cccc(NS(=O)(=O)NCCN4CCCCC4)c3)cn2c1,1.25 °C,-0.11 °C,–,–
CCCCN(Cc1ccc(C(=O)NO)cc1)C(=O)Nc1ccccc1,-0.92 °C,-0.44 °C,–,–
N[C@H](C(=O)O)[C@H](OCc1cccc(NC(=O)c2ccc(C(F)(F)F)cc2)c1)C(=O)O,0.9 °C,-0.22 °C,–,–
CCCCCCNC(=O)n1cc(Cl)c(=O)n(C(=O)OCC(C)C)c1=O,0.68 °C,0.1 °C,–,–

SMILES,ΔTm [1],ΔTm [2],ΔTm ([1]; tested as the 2H-labelled form),ΔTm ([2]; tested as the 2H-labelled form)
O=C(NCCCOc1ccc2[nH]c(=O)ccc2c1)N(C1CC1)[C@@H]1CCCC[C@H]1O,1.1 °C,0.24 °C,–,–
Cc1cc(C(=O)CN2CCCCC2)c(C)n1-c1ccc(Cl)cc1,-1.17 °C,-0.09 °C,–,–
NC(=O)C1CCCc2c1[nH]c1ccc(Cl)cc21 (centres undefined),2.61 °C,0.23 °C,–,–
CS(=O)(=O)N1CCN(C(=O)c2cnc3ccc(F)cc3c2N2CCC(C#N)(c3ccccc3)CC2)CC1,1.45 °C,-4.51 °C,–,–
CC(=O)N1CCC(Nc2cc(C(=O)NC[C@H](O)CN3CCc4ccccc4C3)ncn2)CC1,-1.13 °C,0.28 °C,–,–
COc1nc(N)nc(Nc2cc(S(N)(=O)=O)ccc2N[C@@H](c2cccc3c2OC(F)(F)O3)c2ncccc2Cl)n1,-3.63 °C,1.9 °C,–,–
COc1cc(C)[nH]c(=O)c1CNC(=O)c1c(C)n([C@H](C)C2CCOCC2)c2ccccc12,-1.84 °C,0.42 °C,–,–
Cn1nc2c(=O)n(CC3(O)CCN(C(=O)C[C@H](c4ccccc4)C(F)(F)F)CC3)cnc2c1-c1ccc(CN)cc1,1.89 °C,-0.7 °C,–,–
CC(C)[C@H](NC(=O)OCc1ccccc1)C(=O)NC(CC(=O)O)C(=O)CF (some centres undefined),-1.71 °C,0.74 °C,–,–
N=C(N)N/N=C/c1cccc(Cl)c1Cl,-0.71 °C,0.87 °C,–,–
Nc1nc(NC2CC2)cc(-c2cccc(Cl)c2Cl)n1,0.95 °C,0.04 °C,–,–
Cc1ccc2[nH]c(-n3nc(C)c(Cc4ccccc4)c3O)nc2c1,0.31 °C,-0.11 °C,–,–
COCCOc1cc(CC2CCN(CCc3ccc4c(c3)C(=O)CCO4)CC2)ccc1Br,1.8 °C,-0.65 °C,–,–
CCCOc1cccc(Oc2cc3c(cc2NS(=O)(=O)c2cccc(C(=O)NCCOCCOCCOCC(=O)N[C@H](C(=O)N4C[C@H](O)C[C@H]4C(=O)NCc4ccc(-c5scnc5C)cc4)C(C)(C)C)c2)n(C)c(=O)n3C)c1,1.17 °C,-3.12 °C,–,–
O=C1Nc2ccccc2C2(CCN(CC(Cc3ccccc3)Nc3nc4ccc(F)cc4s3)CC2)N1 (centres undefined),0.27 °C,2.21 °C,–,–
CCN(CCN(C)C)C(=O)CNCc1cc(C(N)=O)ccn1,-1.31 °C,0.97 °C,–,–
COC(=O)CC[C@H](NC(=O)[C@H](C)NC(=O)OCc1ccccc1)C(=O)N[C@H](C(=O)N[C@@H](CC(=O)OC)C(=O)CF)C(C)C (Cbz-AE(OMe)VD(OMe)-CH2F),-0.82 °C,0.54 °C,–,–
O=C(c1ccc2c(ccn2-c2ccc(F)cc2)c1)N1CC(N2CCN(C(=O)c3nccs3)CC2)C1,-2.53 °C,-0.43 °C,–,–
N#C[C@@H]1CCCN1C(=O)CNC(=O)c1ccnc2ccc(OCCCN3CCN(C(=O)CN4CCN(CC(=O)O)CCN(CC(=O)O)CCN(CC(=O)O)CC4)CC3)cc12,1.8 °C,0.18 °C,–,–
CC(=O)Nc1ccc(OC[C@](C)(O)C(=O)Nc2ccc([N+](=O)[O-])c(C(F)(F)F)c2)cc1,0.97 °C,2.59 °C,–,–
O=C(c1cc(O)c(O)c([N+](=O)[O-])c1)c1ccccc1F,1.4 °C,-0.06 °C,–,–
CCc1nc2c(C)cc(N3CCN(CC(=O)N4CC(O)C4)CC3)cn2c1N(C)c1nc(-c2ccc(F)cc2)c(C#N)s1,-0.12 °C,0.26 °C,–,–
O=C(Oc1cccc(F)c1OC(=O)c1cccc(O)c1)c1cccc(O)c1,3.01 °C,0.56 °C,–,–
CC#CCn1c(N2CCC[C@@H](N)C2)nc2c1c(=O)n(Cc1nc(C)c3ccccc3n1)c(=O)n2C,0.04 °C,0.28 °C,–,–
COC[C@H](NC(=O)c1ccn(S(C)(=O)=O)c1)C(=O)Nc1nc(-c2cccc(-c3ccn(C)n3)c2)cs1,-0.52 °C,0.09 °C,–,–
Nc1nc2cc(CC[C@H]3C[C@@H](n4ccc5c(N)ncnc54)[C@H](O)[C@@H]3O)ccc2cc1Br,-0.14 °C,-5.18 °C,–,–

# Reference: ChEMBL document CHEMBL5724796, “Tm Shift (DSF) assay results for EUbOPEN Chemogenomics Library” (2024)
